Measurements from the METLIN SMRT retention time set (Domingo-Almenara et al. 2019).

Assay: gradient 5% acetonitrile 3 min, to 50% in 2 min, to 85% in 15 min, held 3 min, 100 µL/min
Conditions: column: Zorbax Extend-C18 2.1 x 50 mm; eluents: water / acetonitrile, 0.1% formic acid
In short: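 Each retention time is based on an adduct peak selected computationally and verified by manual inspection. Measurements used HPLC–quadrupole time-of-flight mass spectrometry in positive and negative ionization mode on mixtures of ~100 pure standards. Chromatography ran on a Zorbax Extend-C18 column (2.1 × 50 mm, 1.8 μm) at 100 μL/min with water and acetonitrile, each containing 0.1% formic acid, and dead and dwell volumes of 40 μL and 900 μL.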

SMILES | RP-LC retention time [s]
COc1ccc2[nH]c(C(=O)N3CCN(C(=O)c4ccc(Br)o4)CC3)cc2c1 | 784
NC(=O)c1cc2cc(Br)ccc2[nH]1 | 719
COc1cc2ncc(-c3ccccc3)nc2cc1OC | 1020
O=C(NCCC1=CCCCC1)C1CCCCN1S(=O)(=O)c1ccc(Cl)cc1 (centres undefined) | 1200
Cc1nc(-c2ccncc2)nc2c1CCC(=O)N2C1CCCCC1 | 851
Cc1nccn1Cc1nc(-c2ccc(F)c(Br)c2)no1 | 668
CCN1CCN(c2c(S(=O)(=O)c3ccccc3)cnc3cc(OC)c(OC)cc23)CC1 | 623
O=C(Cn1nc(C(=O)N2CCCC2)c2ccccc21)N1CCC(N2CCCCC2)CC1 | 581
CN(C)CCn1nnc2cc(-c3noc(Cc4cccc(F)c4)n3)ccc21 | 668
CC(C)Nc1nc(-c2ccc([N+](=O)[O-])cc2)nc2ccccc12 | 751
N#Cc1cccc(NC(=O)C2CCN(S(=O)(=O)c3cc(-c4noc(C5CC5)n4)cs3)CC2)c1 | 994
CCOc1ccccc1-c1nc(-c2ccc3ncn(C)c3c2)no1 | 747
COc1ccc(CNC(=O)N2CCC(COCc3ccccc3)CC2)cc1OC | 814
CC(C)N1C(=O)C(C)(C(=O)NCc2ccc(F)cc2)Oc2cccnc21 (centres undefined) | 984
O=C(Cn1ccc2c(SCc3ccc(F)cc3)nccc21)NCc1ccc(N2CCOCC2)cc1 | 706
Cc1nc(NC(=O)N2CCC[C@H]2C(N)=O)sc1-c1ccnc(C(C)(C)C(F)(F)F)c1 | 746
Cc1cc(-c2nnc(NC(=O)c3ccc4c(c3)OCCO4)o2)c(C)o1 | 766
CC(C)Cc1nc(N2CCN(C(=O)c3ccc([N+](=O)[O-])cc3)CC2)c(C#N)c2c1COC(C)(C)C2 | 1220
Cc1ccc(OCC(=O)Nc2nnc(C3CC(=O)N(c4ccc(Cl)cc4)C3)o2)cc1 (centres undefined) | 788
COC(=O)c1ccc2c(=O)n(-c3cc(C)cc(C)c3)c(N3CCCC3)nc2c1 | 1240
COc1ccc(NS(=O)(=O)c2c(C)sc(C)c2-c2cc(C(F)(F)F)on2)c(OC)c1 | 1140
O=C(CCCSc1ccc(NC(=O)C2CC2)nn1)NCc1ccccc1Cl | 754
Cc1cc(C)c2c(-n3cccc3)nn(CC(=O)NCC(C)c3ccccc3)c2n1 (centres undefined) | 1040

SMILES | RP-LC retention time [s]
CCN1CCCCc2cc(C(=O)NCC(F)F)sc21 | 892
Cc1ccc(NC(=O)Cn2cnc3c(sc4nc(-c5ccccc5)ccc43)c2=O)cc1 | 859
COc1ccccc1NC(=O)Cn1c(=O)n(-c2ccccc2)c(=O)c2c1cc(C)n2C | 971
O=C(Nc1ccccc1Br)c1c(O)c2cccc3c2n(c1=O)CC3 | 1240
COc1ccc(Cl)cc1NC(=O)Cn1cc2c(n1)CCCC2 | 1020
CCS(=O)(=O)c1ccc(-c2ccc(NS(C)(=O)=O)cc2)nn1 | 643
CNC(=O)c1c(NC(=O)c2ccc(Cl)cc2)sc2c1CCC2 | 1180
CC1=C(c2ccc(C)cc2)S(=O)(=O)N=C1N1CCCC1 | 816
COc1ccccc1CNC(=O)CCC1CCN(c2cc(NC3CC3)ncn2)CC1 | 669
CC(C)CCNC(=O)C1CCCN(c2nc3ccsc3c(=O)n2-c2ccc(F)cc2)C1 (centres undefined) | 884
CC(=O)c1cccc(NC(=O)CN2CCCN(Cc3cccc(F)c3)S2(=O)=O)c1 | 880
CC1=C(c2ccc(Cl)cc2)S(=O)(=O)N=C1N1CCCN(C(=O)C(C)C)CC1 | 822
CCOc1ccc(NC(=O)CSc2nccc(N3CCN(c4cccc(OC)c4)CC3)n2)cc1 | 765
CSc1ccc(-c2nc3ncccn3c2Nc2ccc(C)c(C)c2)cc1 | 889
O=C(NCCc1csc(-c2ccc(F)cc2)n1)c1ccc2nsnc2c1 | 876
COc1ccc(NC(=O)CSc2nc3nc(C)cc(C)n3n2)c(OC)c1 | 713
CCn1nc(C)c(S(=O)(=O)N2CCN(C(=O)C3(c4ccc(OC)cc4)CC3)CC2)c1C | 797
O=C(C1CC(=O)N(c2n[nH]c3cccc(F)c23)C1)N1CCN(c2ccc(Cl)cc2)CC1 (centres undefined) | 817
Cn1ncc2c3ccccc3n(CC(=O)N3CCN(C4CCCCC4)CC3)c2c1=O | 622
CN1C[C@@H](NS(=O)(=O)N(C)C)C[C@@H]2c3cccc4c3c(cn4C)C[C@H]21 | 698
COCCCNC(=O)C1Cn2cccc2C(=O)N1CC(C)C (centres undefined) | 646
Cc1cc2n(n1)CCCN2C(=O)CCC(=O)N1CCN(c2cccc(Cl)c2)CC1 | 778
CCOc1ccccc1CNC(=O)C1CCN(S(=O)(=O)c2cn(CC)cn2)CC1 | 739

SMILES | RP-LC retention time [s]
Cc1nn(CC(=O)NCCc2ccco2)c(=O)c2c(-n3cccc3)n(-c3ccc(Cl)cc3)nc12 | 973
O=C(NCC1CCCO1)c1ccc2nc(CCc3ccccc3)oc2c1 (centres undefined) | 840
Cc1ccccc1Oc1nccn2c(=O)n(CC(=O)Nc3ccc(F)cc3F)nc12 | 829
Cc1cnc(C(=O)N2CCC(c3noc(-c4ccccn4)n3)C2)cn1 (centres undefined) | 628
CCN1C(=O)c2cccnc2Sc2cc(NC(=O)COc3cccc(Cl)c3)ccc21 | 916
CN1c2cc(C(=O)N3CCN(c4ccccc4)CC3)ccc2C(=O)N2CCCCC21 (centres undefined) | 823
CCn1ccc2c(cc(C(=O)Nc3cc(OC)ccc3OC)n2C)c1=O | 746
O=C(CN1C(=O)C(C(=O)N2CCCCC2)Sc2ccccc21)N1CCN(c2ccccn2)CC1 (centres undefined) | 634
C[C@H]1CN(C(=O)Cc2c[nH]c3ccccc23)C[C@@H]1c1nc(-c2cccnc2)no1 | 755
CCCn1c2ccccc2c2nnc(SCC(=O)Nc3nc(-c4ccccc4)cs3)nc21 | 1080
Cc1ccc(-c2cn3c(CC(=O)Nc4ccc(F)cc4Cl)csc3n2)cc1C | 911
Cc1cccc(NS(=O)(=O)c2c[nH]c3ncccc23)c1 | 726
COC(=O)c1c(C)[nH]c(C(=O)N2CCC(CC(=O)NCc3ccc(Cl)cc3)CC2)c1C | 774
CCCn1c(=O)sc2cc(S(=O)(=O)N3CCC(C(=O)NCc4ccco4)CC3)ccc21 | 848
Cc1cccc(NC(=O)Cn2c(C)nc3c(sc4nc(-c5ccccc5)ccc43)c2=O)c1 | 880
COc1ccccc1C(=O)NCc1ccc2c(c1)ncn2C(C)C | 603
Cc1ccc(C(=O)N2CCN(c3nc(CN4CCC(C)CC4)cs3)CC2)cc1F | 688
Cc1ccc(Cl)cc1NC(=O)Cn1nc(N2CCOCC2)c2ccccc2c1=O | 856
COCCC1CCN(C(=O)c2nn(C)c3ccccc23)CC1 | 771
O=C(c1ccoc1)N1CCCC(Nc2ncnc3c2CCC3)C1 (centres undefined) | 574
Cc1ccc(C(CC(=O)N2CCN(c3ccccn3)CC2)N2Cc3ccccc3C2=O)cc1 (centres undefined) | 655
CCCNC(=O)c1cc2sccc2n1Cc1ccc(C)cc1 | 1060
O=C(Nc1ccc(Br)cc1)C1CCCN1S(=O)(=O)c1ccc(F)cc1 (centres undefined) | 967

SMILES | RP-LC retention time [s]
CCN1CCN(c2ncc(N3CCC(C(=O)NCc4cccs4)CC3)cn2)CC1 | 603
Cc1nn(CCCC(=O)NCCCN2CCCCC2)c(=O)c2c1sc1ccccc12 | 645
O=C(NCc1cccs1)c1cc(=O)c(OCc2ccccc2)co1 | 727
CSc1cccc(NC(=O)C2CCN(S(=O)(=O)c3ccc(-c4noc(C5CC5)n4)cc3)CC2)c1 | 1100
CCOc1cccc(-c2noc(Cn3nc(-c4ccc(OC)cc4)ccc3=O)n2)c1 | 1030
O=C(Cn1cnc2nc3c(cc2c1=O)CCCC3)Nc1ccccc1Br | 732
Cc1cc(=O)n2c(-c3cccc(NC(=O)c4sc(C)nc4C)c3)csc2n1 | 645
COc1cccc(-c2nc(N3CCSCC3)ncc2C(=O)O)c1 | 857
CCc1nc2ccccc2c(=O)n1Cc1noc(-c2ccc(OC)c(OC)c2)n1 | 894
CCCS(=O)(=O)c1nc2ccc(NS(=O)(=O)c3ccc(C(C)C)cc3)cc2s1 | 1050
CCCn1c(=O)c(C)nc2cc(-c3noc(-c4ccccc4F)n3)ccc21 | 1130
CCOc1ccc(NC(=O)Nc2c(-c3cccc(C)c3)nc3ccccn23)cc1 | 697
CCCn1cc(C(=O)NC2CCCC2)c2cccnc21 | 794
CC(C)NC(=O)c1ccc2c(c1)CC(=O)N2C | 616
Cc1cnc(C2CC2)n1C1CCN(S(=O)(=O)c2ccc(C#N)cc2)C1 (centres undefined) | 647
COc1ccc(NC(=O)CSc2nccc(N3CCN(c4cc(C)ccc4C)CC3)n2)c(OC)c1 | 980
Cc1ccc(S(=O)(=O)C2=C(O)C(=O)N(Cc3ccco3)C2c2ccc(Cl)cc2)cc1 (centres undefined) | 982
CC1CCCCN1S(=O)(=O)c1ccc2nc(N3CCN(c4cccc(Cl)c4)CC3)ccc2c1 (centres undefined) | 1250
Cc1cc(N2CCCC2)nc(N2CCN(C(=O)c3ccccc3Br)CC2)n1 | 579
CN(C)c1ncncc1N1CCC(C(=O)N2CCCC2)CC1 | 567
